These results are taken from ChEMBL document CHEMBL1146307, “Exploring the active site of phenylethanolamine N-methyltransferase with 1,2,3,4-tetrahydrobenz[h]isoquinoline inhibitors” (Bioorg Med Chem, 2007).

In the first experiment the target is T1, Adrenergic receptor alpha-2 (Rattus norvegicus, UniProt P22086+P19328+P22909).
T1 sequence (P22086 whole entry): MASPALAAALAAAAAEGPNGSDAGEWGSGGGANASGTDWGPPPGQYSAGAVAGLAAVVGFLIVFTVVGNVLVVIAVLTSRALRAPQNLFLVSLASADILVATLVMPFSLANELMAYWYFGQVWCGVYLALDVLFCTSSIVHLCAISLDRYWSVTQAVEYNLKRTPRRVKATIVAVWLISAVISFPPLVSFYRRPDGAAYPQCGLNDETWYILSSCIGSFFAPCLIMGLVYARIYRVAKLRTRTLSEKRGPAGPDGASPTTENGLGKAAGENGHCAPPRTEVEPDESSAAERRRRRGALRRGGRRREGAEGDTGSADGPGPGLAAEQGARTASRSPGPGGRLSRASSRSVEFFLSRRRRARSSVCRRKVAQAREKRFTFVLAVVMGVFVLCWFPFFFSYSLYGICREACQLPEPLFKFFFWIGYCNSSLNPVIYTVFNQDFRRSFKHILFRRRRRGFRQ
T1 sequence (P19328 whole entry): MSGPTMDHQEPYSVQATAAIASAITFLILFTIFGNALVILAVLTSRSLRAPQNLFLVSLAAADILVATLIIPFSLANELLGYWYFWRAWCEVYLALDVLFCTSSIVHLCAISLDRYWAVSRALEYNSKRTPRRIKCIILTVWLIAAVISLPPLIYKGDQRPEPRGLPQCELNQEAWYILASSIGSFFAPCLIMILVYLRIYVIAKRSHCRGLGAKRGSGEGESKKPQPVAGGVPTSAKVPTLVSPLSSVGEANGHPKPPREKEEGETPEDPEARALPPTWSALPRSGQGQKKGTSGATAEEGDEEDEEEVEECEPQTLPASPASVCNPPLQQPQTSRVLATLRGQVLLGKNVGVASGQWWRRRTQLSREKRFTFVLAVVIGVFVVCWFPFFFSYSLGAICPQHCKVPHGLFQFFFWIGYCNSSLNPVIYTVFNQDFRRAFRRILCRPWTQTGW
T1 sequence (P22909 whole entry): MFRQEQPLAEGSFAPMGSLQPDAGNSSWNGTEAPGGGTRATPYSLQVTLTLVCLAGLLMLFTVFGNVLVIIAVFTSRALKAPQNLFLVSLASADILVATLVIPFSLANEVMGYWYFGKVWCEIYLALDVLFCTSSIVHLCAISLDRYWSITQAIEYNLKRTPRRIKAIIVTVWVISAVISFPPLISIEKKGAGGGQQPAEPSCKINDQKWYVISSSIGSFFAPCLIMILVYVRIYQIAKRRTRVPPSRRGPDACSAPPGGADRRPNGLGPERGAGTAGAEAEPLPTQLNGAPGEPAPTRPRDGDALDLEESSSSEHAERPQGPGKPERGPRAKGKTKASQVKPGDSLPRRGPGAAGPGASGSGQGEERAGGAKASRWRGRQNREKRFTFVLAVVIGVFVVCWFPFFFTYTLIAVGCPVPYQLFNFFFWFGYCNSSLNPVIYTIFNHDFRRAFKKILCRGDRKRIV
Nature of the experiment: Displacement of [3H]clonidine from adrenergic alpha2 receptor in Sprague-Dawley rat cortex membrane. The experiment is classed as cell membranes.
Take `O=[N+]([O-])c1cccc2c3c(ccc12)CCNC3`: the Ki worked out at 410 nM. On the same count and under the same terms, the result for `N#Cc1cccc2c3c(ccc12)CCNC3` reads 590 nM; that for `NS(=O)(=O)c1cccc2c3c(ccc12)CCNC3`, 2900 nM.

In turn, `Brc1cccc2c3c(ccc12)CCNC3` registered an inhibition constant Ki of 100 nM. Turning to `COc1cccc2c3c(ccc12)CCNC3`, the inhibition constant Ki is 160 nM. For the compound `Oc1cccc2c3c(ccc12)CCNC3`, the Ki was 11 nM. In turn, `c1ccc2c3c(ccc2c1)CCNC3` yielded an inhibitory constant (Ki) of 16 nM.

Test system in the next experiment: not listed separately
Nature of the experiment: Selectivity for human PNMT over Sprague-Dawley rat adrenergic alpha-2 receptor.
Take `c1ccc2c(c1)CCNC2`: the Ratio Ki was determined as 0.06.
